What was measured:
NCI-H1975 [1] = assay: Induction of apoptosis in human NCI-H1975 cells assessed as late apoptotic cells at 50 nM incubated for 24 hrs by propidium iodide and annexin-V FITC staining based flow cytometry (reference value: 0.23 %); type: functional
NCI-H1975 [2] = assay: Induction of apoptosis in human NCI-H1975 cells assessed as early apoptotic cells at 50 nM incubated for 48 hrs by propidium iodide and annexin-V FITC staining based flow cytometry (reference value: 0.95 %); type: functional
NCI-H1975 [3] = assay: Induction of apoptosis in human NCI-H1975 cells assessed as viable cells at 50 nM incubated for 48 hrs by propidium iodide and annexin-V FITC staining based flow cytometry (reference value: 99.05 %); type: functional; settings: NCI-H1975, 48 h, read-out: Activity
NCI-H1975 [4] = assay: Induction of apoptosis in human NCI-H1975 cells assessed as necrotic cells at 50 nM incubated for 48 hrs by propidium iodide and annexin-V FITC staining based flow cytometry (reference value: 0.01 %); type: functional
[5] = Cytotoxicity against human HEK293A cells expressing EGFR assessed as reduction in cell viability incubated for 72 hrs by MTT assay; type: cell-based, HEK293-A; settings: hek293-a
NCI-H1975 [6] = assay: Induction of apoptosis in human NCI-H1975 cells assessed as necrotic cells at 25 nM incubated for 48 hrs by propidium iodide and annexin-V FITC staining based flow cytometry (reference value: 0.01 %); type: functional
NCI-H1975 [7] = assay: Induction of apoptosis in human NCI-H1975 cells assessed as necrotic cells at 50 nM incubated for 72 hrs by propidium iodide and annexin-V FITC staining based flow cytometry (reference value: 0.01 %); type: functional
NCI-H1975 [8] = assay: Inhibition of cell migration in human NCI-H1975 cells at 25 nM incubated for 24 hrs by phase contrast microscopy relative to control; type: functional; settings: Homo sapiens, NCI-H1975, 24 h
[9] = MRT (0 to t) in ICR mouse at 10 mg/kg, po; type: ADME, organism-based; settings: in vivo
NCI-H1975 [10] = assay: Induction of apoptosis in human NCI-H1975 cells assessed as necrotic cells at 50 nM incubated for 24 hrs by propidium iodide and annexin-V FITC staining based flow cytometry (reference value: 0.01 %); type: functional
[11] = Cmax in ICR mouse at 5 mg/kg, iv; type: ADME, organism-based; parameters: dose 5 mg/kg, route intravenous; settings: in vivo
[12] = Half life in ICR mouse at 5 mg/kg, iv; type: ADME, organism-based; settings: in vivo
NCI-H1975 [13] = assay: Antiproliferative activity against human NCI-H1975 cells expressing EGFR T790M/L858R mutant assessed as reduction in cell viability incubated for 72 hrs by MTT assay; type: functional, cell-based; settings: nci-h1975
NCI-H1975 [14] = assay: Induction of apoptosis in human NCI-H1975 cells assessed as early apoptotic cells at 5 nM incubated for 72 hrs by propidium iodide and annexin-V FITC staining based flow cytometry (reference value: 2.43 %); type: functional
[15] = Half life in ICR mouse at 10 mg/kg, po; type: ADME, organism-based; settings: in vivo
NCI-H1975 [16] = assay: Induction of apoptosis in human NCI-H1975 cells assessed as late apoptotic cells at 5 nM incubated for 24 hrs by propidium iodide and annexin-V FITC staining based flow cytometry (reference value: 0.23 %); type: functional
NCI-H1975 [17] = assay: Induction of apoptosis in human NCI-H1975 cells assessed as viable cells at 50 nM incubated for 72 hrs by propidium iodide and annexin-V FITC staining based flow cytometry (reference value: 97.55 %); type: functional; settings: NCI-H1975, 72 h, read-out: Activity
NCI-H1975 [18] = assay: Induction of apoptosis in human NCI-H1975 cells assessed as viable cells at 5 nM incubated for 48 hrs by propidium iodide and annexin-V FITC staining based flow cytometry (reference value: 99.05 %); type: functional; settings: NCI-H1975, 48 h, read-out: Activity
[19] = MRT (0 to infinity) in ICR mouse at 10 mg/kg, po; type: ADME, organism-based; settings: in vivo
NCI-H1975 [20] = assay: Induction of apoptosis in human NCI-H1975 cells assessed as early apoptotic cells at 25 nM incubated for 72 hrs by propidium iodide and annexin-V FITC staining based flow cytometry (reference value: 2.43 %); type: functional
[21] = Clearance in ICR mouse at 5 mg/kg, iv; type: ADME, organism-based; settings: in vivo
NCI-H1975 [22] = assay: Induction of apoptosis in human NCI-H1975 cells assessed as necrotic cells at 25 nM incubated for 72 hrs by propidium iodide and annexin-V FITC staining based flow cytometry (reference value: 0.01 %); type: functional
[23] = Cytotoxicity against human HLF cells expressing EGFR assessed as reduction in cell viability incubated for 72 hrs by MTT assay; type: cell-based
NCI-H1975 [24] = assay: Inhibition of cell migration in human NCI-H1975 cells at 50 nM incubated for 24 hrs by phase contrast microscopy relative to control; type: functional; settings: NCI-H1975, 24 h
NCI-H1975 [25] = assay: Induction of apoptosis in human NCI-H1975 cells assessed as late apoptotic cells at 50 nM incubated for 72 hrs by propidium iodide and annexin-V FITC staining based flow cytometry (reference value: 0.01 %); type: functional
[26] = AUC (0 to infinity) in ICR mouse at 5 mg/kg, iv; type: ADME, organism-based; parameters: dose 5 mg/kg, time infinity, route intravenous; settings: in vivo
NCI-H1975 [27] = assay: Induction of apoptosis in human NCI-H1975 cells assessed as viable cells at 50 nM incubated for 24 hrs by propidium iodide and annexin-V FITC staining based flow cytometry (reference value: 98.82 %); type: functional; settings: NCI-H1975, 24 h, read-out: Activity
[28] = AUC (0 to infinity) in ICR mouse at 10 mg/kg, po; type: ADME, organism-based; parameters: dose 10 mg/kg, route oral, time infinity; settings: in vivo
NCI-H1975 [29] = assay: Induction of apoptosis in human NCI-H1975 cells assessed as necrotic cells at 25 nM incubated for 24 hrs by propidium iodide and annexin-V FITC staining based flow cytometry (reference value: 0.01 %); type: functional
NCI-H1975 [30] = assay: Induction of apoptosis in human NCI-H1975 cells assessed as early apoptotic cells at 25 nM incubated for 48 hrs by propidium iodide and annexin-V FITC staining based flow cytometry (reference value: 0.95 %); type: functional
[31] = Tmax in ICR mouse at 5 mg/kg, iv; type: ADME, organism-based; settings: in vivo
[32] = AUC (0 to t) in ICR mouse at 10 mg/kg, po; type: ADME, organism-based; settings: in vivo
NCI-H292 = assay: Antiproliferative activity against human NCI-H292 cells expressing EGFR assessed as reduction in cell viability incubated for 72 hrs by MTT assay; type: functional, cell-based; settings: nci-h292
[33] = Selectivity index, ratio of IC50 for human HK2 cells to IC50 for human NCI-H1975 cells expressing EGFR T790M/L858R mutant
NCI-H1975 [34] = assay: Induction of apoptosis in human NCI-H1975 cells assessed as necrotic cells at 5 nM incubated for 24 hrs by propidium iodide and annexin-V FITC staining based flow cytometry (reference value: 0.01 %); type: functional

Q: For `C=CC(=O)Nc1cc(Nc2nccc(-c3cn(C)c4ccccc34)n2)c(OC)cc1[S+]([O-])CCN(C)C` (single isomer, unassigned; (-)), which Activity (NCI-H1975 [1]) is on record?
A: 2.3%

Q: And the Activity (NCI-H1975 [2])?
A: 56.02%

Q: What about the viability at 0.05 µM (NCI-H1975 [3]) of the same compound?
A: 13.7%

Q: What about the Activity (NCI-H1975 [4]) of the same compound?
A: 0.71%

Q: What about the IC50 [5] of the same compound?
A: 1.92 µM

Q: What about the Activity (NCI-H1975 [6]) of the same compound?
A: 0.69%

Q: And the Activity (NCI-H1975 [7])?
A: 1.84%

Q: What about the inhibition at 0.025 µM (NCI-H1975 [8]) of the same compound?
A: 69.7%

Q: What about the MRT last [9] of the same compound?
A: 2.32 h

Q: And the Activity (NCI-H1975 [10])?
A: 0.45%

Q: And the Cmax [11]?
A: 1610 ng/mL

Q: What about the half-life [12] of the same compound?
A: 1.12 h

Q: What about the IC50 (NCI-H1975 [13]) of the same compound?
A: 0.01 µM

Q: What about the Activity (NCI-H1975 [14]) of the same compound?
A: 21.59%

Q: And the half-life [15]?
A: 1.73 h

Q: What about the Activity (NCI-H1975 [16]) of the same compound?
A: 1.17%

Q: What about the viability at 0.05 µM (NCI-H1975 [17]) of the same compound?
A: 11.3%

Q: And the viability at 0.005 µM (NCI-H1975 [18])?
A: 77%

Q: And the MRT inf [19]?
A: 2.68 h

Q: And the Activity (NCI-H1975 [20])?
A: 43.25%

Q: What about the clearance [21] of the same compound?
A: 63.9 mL/min/kg

Q: What about the Activity (NCI-H1975 [22]) of the same compound?
A: 1.85%

Q: What about the IC50 [23] of the same compound?
A: 9.14 µM

Q: What about the inhibition at 0.05 µM (NCI-H1975 [24]) of the same compound?
A: 87.6%

Q: And the Activity (NCI-H1975 [25])?
A: 30.74%

Q: And the AUC(0-inf) [26]?
A: 1300 ng·h/mL

Q: What about the viability at 0.05 µM (NCI-H1975 [27]) of the same compound?
A: 65.6%

Q: What about the AUC(0-inf) [28] of the same compound?
A: 2000 ng·h/mL

Q: What about the Activity (NCI-H1975 [29]) of the same compound?
A: 0.14%

Q: What about the Activity (NCI-H1975 [30]) of the same compound?
A: 51.86%

Q: And the Tmax [31]?
A: 4.8 min

Q: What about the AUC(0-t) [32] of the same compound?
A: 1910 ng·h/mL

Q: What about the IC50 (NCI-H292) of the same compound?
A: 1.09 µM

Q: What about the “Ratio IC50” value [33] of the same compound?
A: >1000

Q: And the Activity (NCI-H1975 [34])?
A: 0.32%
